# According to article PMC11530593, “Structural mechanism of human HCN1 hyperpolarization-activated channel inhibition by ivabradine” (The Journal of Biological Chemistry, 2024):
# Residue numbers refer to the chain shown, from its start.
# Legend:
# [1] = target: T1, WT hHCN1 (Homo sapiens, UniProt O60741); experiment: Whole-cell patch-clamp, Ih inhibition in transfected HeLa cells; type: cell-based
# T1 construct: Full-length WT or mutant human HCN1 were cloned into the pcDNA3.1 vector; expressed in transfected cells; host or cells: HeLa cells, pcDNA3.1 vector, transient lipofection
# T1 sequence (O60741 1-890): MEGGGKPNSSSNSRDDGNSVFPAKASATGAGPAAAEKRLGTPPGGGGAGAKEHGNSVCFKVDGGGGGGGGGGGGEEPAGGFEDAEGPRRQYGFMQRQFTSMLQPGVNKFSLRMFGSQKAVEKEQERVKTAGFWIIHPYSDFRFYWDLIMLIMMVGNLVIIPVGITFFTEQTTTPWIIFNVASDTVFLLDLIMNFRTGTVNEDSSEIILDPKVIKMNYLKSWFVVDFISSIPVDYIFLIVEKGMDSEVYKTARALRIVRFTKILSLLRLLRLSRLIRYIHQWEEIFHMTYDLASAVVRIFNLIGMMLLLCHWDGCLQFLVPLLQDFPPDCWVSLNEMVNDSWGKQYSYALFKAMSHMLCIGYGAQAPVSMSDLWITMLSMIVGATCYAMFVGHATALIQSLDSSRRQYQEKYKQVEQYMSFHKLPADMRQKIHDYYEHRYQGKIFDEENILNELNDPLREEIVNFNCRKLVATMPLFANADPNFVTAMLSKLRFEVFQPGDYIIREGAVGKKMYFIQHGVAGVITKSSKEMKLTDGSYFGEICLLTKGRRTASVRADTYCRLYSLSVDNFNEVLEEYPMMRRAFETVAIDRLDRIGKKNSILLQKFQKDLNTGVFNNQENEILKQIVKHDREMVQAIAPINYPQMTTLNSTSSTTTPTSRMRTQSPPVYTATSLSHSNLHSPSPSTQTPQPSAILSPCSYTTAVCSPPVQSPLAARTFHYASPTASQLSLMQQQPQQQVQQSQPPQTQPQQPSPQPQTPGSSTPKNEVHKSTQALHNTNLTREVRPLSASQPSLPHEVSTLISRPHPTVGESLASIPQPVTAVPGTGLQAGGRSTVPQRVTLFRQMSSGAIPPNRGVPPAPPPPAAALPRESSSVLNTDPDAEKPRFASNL
# Method: The electrophysiological characteristics of WT hHCN1 were recorded using whole-cell patch-clamp. […] Activation of the HCN1 channel occurred in response to membrane hyperpolarization.
# (§1) Full-length WT or mutant human HCN1 were cloned into the pcDNA3.1 vector for electrophysiological experiments. HeLa cells (from Thermo Fisher Scientific) cultured in Dulbecco's modified Eagle's medium (from Solarbio Life Science) + 10% fetal bovine serum (from ExCell Bio) at 37 °C were transiently transfected using lipofection, and whole-cell patch-clamp recordings were obtained using the Axon 200B amplifier (Molecular Devices) and clampex software (https://www.moleculardevices.com/products/axon-patch-clamp-system/acquisition-and-analysis-software/pclamp-software-suite), 36 to 48 h posttransfection. The extracellular solution contained 110 mM NaCl, 0.5 mM MgCl2, 1.8 mM CaCl2, 5 mM Hepes, 30 mM KCl, and pH was adjusted to 7.4 with NaOH, while the pipette solution contained 130 mM KCl, 10 mM NaCl, 0.5 mM MgCl2, 1 mM EGTA, 5 mM Hepes, and pH was adjusted to 7.4 with KOH. The recordings were performed at room temperature, voltage-clamp mode, and filtered at 1 kHz. The sampling frequency was 10 kHz, and the series resistance was limited to 5 MΩ. To elicit channel currents, step pulses of 3 s duration ranging from −180 mV to −30 mV were applied, followed by a step to −180 mV lasting 1.25 s. The tail currents evoked by the second step were used to determine the voltage-dependent activation curves and calculate the midpoint of activation potential (V1/2). The half maximal inhibitory concentration (IC50) of drugs was determined by recording currents at a pulse of −140 mV and analyzing current amplitudes at varying drug concentrations. The IC50 value was calculated using the Hill equation.
# [2] = target: T2, HCN1 mutant F143A (Homo sapiens, UniProt O60741, F143A); experiment: Whole-cell patch-clamp, Ih inhibition, HCN1 mutant; type: cell-based
# T2 construct: Full-length WT or mutant human HCN1 were cloned into the pcDNA3.1 vector; expressed in transfected cells; host or cells: HeLa cells, pcDNA3.1 vector, transient lipofection
# T2 sequence (O60741 1-890 F143A): T1 sequence (O60741 1-890) with F143A
# Method: To elucidate the contribution of these residues to the inhibitory effect of ivabradine, we introduced mutations in ivabradine-interacting residues, converting them into alanines (Fig. 2F).
# as §1
# [3] = set-up: method as in PMID 16936474; conditions: cited from earlier work
smiles,measurement,setting,value
COc1cc2c(cc1OC)CC(=O)N(CCCN(C)C[C@H]1Cc3cc(OC)c(OC)cc31)CC2 [ivabradine],effect on Ih current,[1]; 20 μM,significantly reduced
same,IC50,"[1]; membrane potential -140 mV, read-out: half-maximal inhibitory concentration (IC50) of Ih inhibition",2.94 ± 0.61 µM
same,IC50,"[2]; F143A mutant, electrophysiological recordings, read-out: IC50 (Fig. 2F)",32.9 µM
same,change in potency by mutation,[2]; F143A versus WT,dramatic decrease
same,ability to penetrate the blood-brain barrier,[3],poor
